Values joined by “and” are separate entries in the source; they are usually repeats but may differ in a detail not shown here. Identical values can stand only once.
Key:
Test in all cases: radiometric filter-binding kinase assay, Kinase HotSpot
Conditions in all cases: compound 0.5 µM; ATP 10 µM
PAK7 (human) = PAK7 (human) (UniProt Q9P286)
MAPKAPK2 (human) = MAPKAPK2 (human) (UniProt P49137)
CLK2 (human) = CLK2 (human) (UniProt P49760)
ULK3 (human) = ULK3 (human) (UniProt Q6PHR2)
STK10 (human) = STK10 (human) (UniProt O94804)
CSNK1A1 (human) = CSNK1A1 (human) (UniProt P48729)
TYRO3 (human) = TYRO3 (human) (UniProt Q06418)
NUAK2 (human) = NUAK2 (human) (UniProt Q9H093)
SIK2 (human) = SIK2 (human) (UniProt Q9H0K1)
TNK2 (human) = TNK2 (human) (UniProt Q07912)
MAP2K2 (human) = MAP2K2 (human) (UniProt P36507)
CDK6 CCND1 (human) = CDK6 CCND1 (human) (UniProt Q00534+P24385)
PRKCB1 (human) = PRKCB1 (human) (UniProt P05771)
TAOK1 (human) = TAOK1 (human) (UniProt Q7L7X3)
ERBB2 (human) = ERBB2 (human) (UniProt P04626)
MAP3K8 (human) = MAP3K8 (human) (UniProt P41279)
PRKACG (human) = PRKACG (human) (UniProt P22612)
STK16 (human) = STK16 (human) (UniProt O75716)
MYO3B (human) = MYO3B (human) (UniProt Q8WXR4)
EPHA6 (human) = EPHA6 (human) (UniProt Q9UF33)
MELK (human) = MELK (human) (UniProt Q14680)
PAK6 (human) = PAK6 (human) (UniProt Q9NQU5)
PDGFRB (human) = PDGFRB (human) (UniProt P09619)
STK33 (human) = STK33 (human) (UniProt Q9BYT3)
MAPK3 (human) = MAPK3 (human) (UniProt P27361)
AURKC (human) = AURKC (human) (UniProt Q9UQB9)
RPS6KA5 KD2 (human) = RPS6KA5 KD2 (human) (UniProt O75582)
TLK2 (human) = TLK2 (human) (UniProt Q86UE8)
STK38 (human) = STK38 (human) (UniProt Q15208)
CDK2 CCNE1 (human) = CDK2 CCNE1 (human) (UniProt P24941+P24864)
[1] = test system: ARAF (human), P10398 [Y301D/Y302D]
AKT1 (human) = AKT1 (human) (UniProt P31749)
OXSR1 (human) = OXSR1 (human) (UniProt O95747)
BRAF (human) = BRAF (human) (UniProt P15056)
MAPK10 (human) = MAPK10 (human) (UniProt P53779)
PRKG1 (human) = PRKG1 (human) (UniProt Q13976)
CSNK2A2 (human) = CSNK2A2 (human) (UniProt P19784)
MST1R (human) = MST1R (human) (UniProt Q04912)
HIPK3 (human) = HIPK3 (human) (UniProt Q9H422)
PRKX (human) = PRKX (human) (UniProt P51817)
ABL1 (human) = ABL1 (human) (UniProt P00519)
EGFR (human) = EGFR (human) (UniProt P00533)

Chain of ERBB2 (human) (P04626 whole entry, looked up): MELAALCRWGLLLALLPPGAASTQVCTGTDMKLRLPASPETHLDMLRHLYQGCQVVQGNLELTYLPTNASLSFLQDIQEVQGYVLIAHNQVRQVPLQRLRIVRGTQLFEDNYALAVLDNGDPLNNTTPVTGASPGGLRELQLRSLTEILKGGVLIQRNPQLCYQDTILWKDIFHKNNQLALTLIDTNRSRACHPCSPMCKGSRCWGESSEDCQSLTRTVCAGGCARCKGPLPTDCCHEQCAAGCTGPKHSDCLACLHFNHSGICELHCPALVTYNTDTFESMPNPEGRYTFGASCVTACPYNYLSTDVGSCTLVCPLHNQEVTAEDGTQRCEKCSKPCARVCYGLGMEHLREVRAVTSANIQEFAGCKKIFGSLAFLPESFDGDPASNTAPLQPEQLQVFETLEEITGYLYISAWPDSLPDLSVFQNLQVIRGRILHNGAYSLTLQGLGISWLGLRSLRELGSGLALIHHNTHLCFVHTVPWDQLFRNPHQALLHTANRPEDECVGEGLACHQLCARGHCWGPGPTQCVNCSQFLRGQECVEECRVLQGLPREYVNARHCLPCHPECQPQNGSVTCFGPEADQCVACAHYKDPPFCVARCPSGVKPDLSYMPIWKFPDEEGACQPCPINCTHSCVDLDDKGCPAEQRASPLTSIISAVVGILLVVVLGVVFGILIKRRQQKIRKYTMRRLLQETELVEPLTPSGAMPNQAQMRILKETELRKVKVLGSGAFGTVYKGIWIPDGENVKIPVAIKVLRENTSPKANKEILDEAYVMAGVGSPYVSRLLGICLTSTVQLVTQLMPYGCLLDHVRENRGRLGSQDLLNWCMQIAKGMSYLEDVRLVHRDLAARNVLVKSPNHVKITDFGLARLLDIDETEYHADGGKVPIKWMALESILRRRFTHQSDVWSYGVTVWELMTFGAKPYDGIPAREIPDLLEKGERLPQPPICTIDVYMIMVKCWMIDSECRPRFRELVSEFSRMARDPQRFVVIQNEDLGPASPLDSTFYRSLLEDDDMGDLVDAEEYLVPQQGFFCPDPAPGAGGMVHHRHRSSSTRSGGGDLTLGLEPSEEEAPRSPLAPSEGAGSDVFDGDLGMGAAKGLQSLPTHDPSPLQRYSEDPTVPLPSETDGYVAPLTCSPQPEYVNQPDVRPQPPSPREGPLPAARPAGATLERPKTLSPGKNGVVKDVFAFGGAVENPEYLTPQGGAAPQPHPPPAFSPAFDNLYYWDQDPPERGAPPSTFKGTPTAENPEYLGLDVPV
Chain of PRKX (human) (P51817 whole entry, looked up): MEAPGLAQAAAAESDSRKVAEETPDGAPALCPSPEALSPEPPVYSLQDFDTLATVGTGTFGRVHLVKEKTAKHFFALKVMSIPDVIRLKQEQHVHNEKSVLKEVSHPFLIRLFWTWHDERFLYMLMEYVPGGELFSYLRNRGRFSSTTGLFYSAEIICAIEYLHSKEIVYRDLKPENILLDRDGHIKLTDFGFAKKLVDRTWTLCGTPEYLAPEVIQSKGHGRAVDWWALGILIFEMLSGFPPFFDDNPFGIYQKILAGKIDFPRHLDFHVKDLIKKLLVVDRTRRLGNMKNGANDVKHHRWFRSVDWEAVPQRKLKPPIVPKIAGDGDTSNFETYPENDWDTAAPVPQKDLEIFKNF
Chain of TLK2 (human) (Q86UE8 whole entry, looked up): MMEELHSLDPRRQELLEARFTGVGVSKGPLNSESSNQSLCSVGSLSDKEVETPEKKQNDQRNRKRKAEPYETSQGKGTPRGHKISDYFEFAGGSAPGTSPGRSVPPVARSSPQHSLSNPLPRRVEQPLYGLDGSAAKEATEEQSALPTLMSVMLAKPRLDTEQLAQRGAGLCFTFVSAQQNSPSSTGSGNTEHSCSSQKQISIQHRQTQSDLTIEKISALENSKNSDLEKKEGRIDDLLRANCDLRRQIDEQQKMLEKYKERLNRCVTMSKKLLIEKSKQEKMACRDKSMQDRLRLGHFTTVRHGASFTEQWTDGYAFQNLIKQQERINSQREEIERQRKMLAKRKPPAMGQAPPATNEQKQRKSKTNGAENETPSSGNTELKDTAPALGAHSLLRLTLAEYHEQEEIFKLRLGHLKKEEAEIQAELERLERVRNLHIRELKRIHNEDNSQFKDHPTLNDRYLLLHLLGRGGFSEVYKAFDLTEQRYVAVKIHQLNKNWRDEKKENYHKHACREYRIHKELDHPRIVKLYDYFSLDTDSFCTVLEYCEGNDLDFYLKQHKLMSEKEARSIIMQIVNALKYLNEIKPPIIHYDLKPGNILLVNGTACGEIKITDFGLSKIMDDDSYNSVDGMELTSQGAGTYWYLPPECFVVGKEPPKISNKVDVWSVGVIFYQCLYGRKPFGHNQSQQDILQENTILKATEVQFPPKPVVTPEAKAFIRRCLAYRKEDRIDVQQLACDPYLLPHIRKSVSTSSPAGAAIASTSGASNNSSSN
Chain of TYRO3 (human) (Q06418 whole entry, looked up): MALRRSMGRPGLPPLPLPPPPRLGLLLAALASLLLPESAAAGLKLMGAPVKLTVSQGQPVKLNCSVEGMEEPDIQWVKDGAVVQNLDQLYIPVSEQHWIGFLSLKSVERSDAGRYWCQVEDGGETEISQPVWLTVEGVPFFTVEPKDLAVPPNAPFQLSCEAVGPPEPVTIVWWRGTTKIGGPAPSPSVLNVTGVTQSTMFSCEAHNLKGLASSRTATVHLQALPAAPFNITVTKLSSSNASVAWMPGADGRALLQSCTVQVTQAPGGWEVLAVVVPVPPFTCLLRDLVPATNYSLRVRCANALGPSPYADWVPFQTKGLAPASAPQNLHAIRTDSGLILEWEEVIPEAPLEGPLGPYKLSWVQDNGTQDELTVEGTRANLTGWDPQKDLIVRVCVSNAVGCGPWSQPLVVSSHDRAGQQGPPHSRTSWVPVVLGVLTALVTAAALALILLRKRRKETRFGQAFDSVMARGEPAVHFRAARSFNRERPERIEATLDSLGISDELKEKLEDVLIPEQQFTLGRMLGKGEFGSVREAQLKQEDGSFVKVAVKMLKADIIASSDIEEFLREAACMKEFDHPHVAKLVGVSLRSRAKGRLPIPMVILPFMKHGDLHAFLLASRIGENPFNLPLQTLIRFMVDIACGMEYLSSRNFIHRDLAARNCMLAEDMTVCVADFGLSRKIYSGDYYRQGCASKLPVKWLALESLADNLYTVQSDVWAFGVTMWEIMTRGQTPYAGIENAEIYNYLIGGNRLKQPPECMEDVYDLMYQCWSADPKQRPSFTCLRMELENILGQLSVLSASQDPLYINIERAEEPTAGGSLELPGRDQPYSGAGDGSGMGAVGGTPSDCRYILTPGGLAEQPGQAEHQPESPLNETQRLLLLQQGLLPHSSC
Chain of MAP2K2 (human) (P36507 whole entry, looked up): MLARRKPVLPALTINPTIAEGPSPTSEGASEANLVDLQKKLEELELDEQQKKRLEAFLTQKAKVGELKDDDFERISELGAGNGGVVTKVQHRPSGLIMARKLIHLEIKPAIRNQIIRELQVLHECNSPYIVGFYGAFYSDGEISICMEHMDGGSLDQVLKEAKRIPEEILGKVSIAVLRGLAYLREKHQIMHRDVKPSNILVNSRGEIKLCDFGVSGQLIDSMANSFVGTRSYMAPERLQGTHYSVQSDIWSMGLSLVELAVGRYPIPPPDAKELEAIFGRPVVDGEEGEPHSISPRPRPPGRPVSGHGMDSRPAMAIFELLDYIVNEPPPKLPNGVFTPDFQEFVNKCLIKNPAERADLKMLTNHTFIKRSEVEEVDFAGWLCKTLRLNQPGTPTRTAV
Chain of PDGFRB (human) (P09619 whole entry, looked up): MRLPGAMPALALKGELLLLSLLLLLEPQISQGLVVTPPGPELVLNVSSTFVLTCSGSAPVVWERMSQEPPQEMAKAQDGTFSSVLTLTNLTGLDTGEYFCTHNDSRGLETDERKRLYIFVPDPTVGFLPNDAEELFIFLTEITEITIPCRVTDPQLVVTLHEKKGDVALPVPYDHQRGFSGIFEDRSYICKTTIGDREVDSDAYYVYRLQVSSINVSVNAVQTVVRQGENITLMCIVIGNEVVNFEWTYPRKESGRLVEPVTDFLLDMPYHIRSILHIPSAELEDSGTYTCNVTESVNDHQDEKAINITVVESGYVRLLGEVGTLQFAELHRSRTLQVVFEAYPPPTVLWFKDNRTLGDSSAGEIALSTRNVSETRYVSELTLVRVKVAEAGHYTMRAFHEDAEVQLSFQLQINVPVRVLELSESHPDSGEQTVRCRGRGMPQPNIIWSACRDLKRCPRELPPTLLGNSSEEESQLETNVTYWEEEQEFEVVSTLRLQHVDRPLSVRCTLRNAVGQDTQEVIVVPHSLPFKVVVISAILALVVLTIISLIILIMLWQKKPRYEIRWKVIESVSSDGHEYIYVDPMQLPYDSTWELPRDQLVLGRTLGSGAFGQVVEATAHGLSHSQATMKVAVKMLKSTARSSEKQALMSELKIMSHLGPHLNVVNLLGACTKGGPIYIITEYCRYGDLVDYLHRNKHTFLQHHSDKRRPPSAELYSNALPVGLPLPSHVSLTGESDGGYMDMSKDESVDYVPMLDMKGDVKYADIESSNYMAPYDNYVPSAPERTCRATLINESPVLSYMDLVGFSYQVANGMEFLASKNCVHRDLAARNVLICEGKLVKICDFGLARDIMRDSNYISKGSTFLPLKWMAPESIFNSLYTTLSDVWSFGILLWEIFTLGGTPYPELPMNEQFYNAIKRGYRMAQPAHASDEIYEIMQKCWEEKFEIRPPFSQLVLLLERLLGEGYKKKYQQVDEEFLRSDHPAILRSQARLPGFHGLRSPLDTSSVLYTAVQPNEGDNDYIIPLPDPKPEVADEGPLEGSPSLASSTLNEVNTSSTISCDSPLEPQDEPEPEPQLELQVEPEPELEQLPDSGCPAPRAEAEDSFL

COc1cc2ncnc(Nc3ccc(F)c(Cl)c3)c2cc1OCCCN1CCOCC1
residual activity (PAK7 (human)): 97.4% | residual activity (MAPKAPK2 (human)): 97.5% | residual activity (CLK2 (human)): 94.8% | residual activity (ULK3 (human)): 108% | residual activity (STK10 (human)): 38.6% | residual activity (CSNK1A1 (human)): 98.6% | residual activity (TYRO3 (human)): 94.9% | residual activity (NUAK2 (human)): 96% | residual activity (SIK2 (human)): 49.3% | residual activity (TNK2 (human)): 72.8% | residual activity (MAP2K2 (human)): 102% | residual activity (CDK6 CCND1 (human)): 98.7% | residual activity (PRKCB1 (human)): 95% | residual activity (TAOK1 (human)): 103% | residual activity (ERBB2 (human)): 34.2% | residual activity (MAP3K8 (human)): 95.7% | residual activity (PRKACG (human)): 107% | residual activity (STK16 (human)): 96.8% | residual activity (MYO3B (human)): 91.4% | residual activity (EPHA6 (human)): 28.9% | residual activity (MELK (human)): 77.7% | residual activity (PAK6 (human)): 105% | residual activity (PDGFRB (human)): 93.9% | residual activity (STK33 (human)): 90.4% | residual activity (MAPK3 (human)): 100% | residual activity (AURKC (human)): 89.7% | residual activity (RPS6KA5 KD2 (human)): 100% | residual activity (TLK2 (human)): 80.4% | residual activity (STK38 (human)): 105% | residual activity (CDK2 CCNE1 (human)): 101% | residual activity [1]: 95.3% | residual activity (AKT1 (human)): 94.1% | residual activity (OXSR1 (human)): 101% | residual activity (BRAF (human)): 95.8% | residual activity (MAPK10 (human)): 102% | residual activity (PRKG1 (human)): 103% and 87.5% | residual activity (CSNK2A2 (human)): 88.6% | residual activity (MST1R (human)): 97.7% | residual activity (HIPK3 (human)): 103%

Oc1ccc(-c2nc(-c3ccc(F)cc3)c(-c3ccncc3)[nH]2)cc1
residual activity (PAK7 (human)): 107% | residual activity (MAPKAPK2 (human)): 99.2% | residual activity (CLK2 (human)): 105% | residual activity (ULK3 (human)): 85.5% | residual activity (STK10 (human)): 85% | residual activity (CSNK1A1 (human)): 62.3% | residual activity (TYRO3 (human)): 97.5% | residual activity (NUAK2 (human)): 128% | residual activity (SIK2 (human)): 83.4% | residual activity (TNK2 (human)): 83.2% | residual activity (MAP2K2 (human)): 101% | residual activity (CDK6 CCND1 (human)): 97.6% | residual activity (PRKCB1 (human)): 63.7% | residual activity (TAOK1 (human)): 98.5% | residual activity (ERBB2 (human)): 95.5% | residual activity (MAP3K8 (human)): 96.6% | residual activity (PRKACG (human)): 78.4% | residual activity (STK16 (human)): 111% | residual activity (PRKX (human)): 84% | residual activity (MYO3B (human)): 101% | residual activity (EPHA6 (human)): 57.3% | residual activity (MELK (human)): 102% | residual activity (PAK6 (human)): 104% | residual activity (PDGFRB (human)): 104% | residual activity (STK33 (human)): 103% | residual activity (MAPK3 (human)): 101% | residual activity (AURKC (human)): 94.2% | residual activity (RPS6KA5 KD2 (human)): 107% | residual activity (TLK2 (human)): 97.4% | residual activity (STK38 (human)): 99.8% | residual activity (CDK2 CCNE1 (human)): 90.6% | residual activity [1]: 31.1% | residual activity (AKT1 (human)): 101% | residual activity (OXSR1 (human)): 97.6% | residual activity (BRAF (human)): 60.5% | residual activity (MAPK10 (human)): 117% | residual activity (PRKG1 (human)): 87% and 90.4% | residual activity (CSNK2A2 (human)): 95.9% | residual activity (MST1R (human)): 102% | residual activity (HIPK3 (human)): 98.3%

Clc1ccc(Nc2nnc(Cc3ccncc3)c3ccccc23)cc1
residual activity (PAK7 (human)): 97.1% | residual activity (MAPKAPK2 (human)): 98.8% | residual activity (CLK2 (human)): 87.6% | residual activity (ULK3 (human)): 101% | residual activity (STK10 (human)): 96.3% | residual activity (CSNK1A1 (human)): 95% | residual activity (TYRO3 (human)): 98.2% | residual activity (NUAK2 (human)): 105% | residual activity (SIK2 (human)): 97.9% | residual activity (TNK2 (human)): 91.7% | residual activity (MAP2K2 (human)): 100% | residual activity (CDK6 CCND1 (human)): 93% | residual activity (PRKCB1 (human)): 83.5% | residual activity (TAOK1 (human)): 98.7% | residual activity (ERBB2 (human)): 101% | residual activity (MAP3K8 (human)): 98.2% | residual activity (PRKACG (human)): 116% | residual activity (STK16 (human)): 93.5% | residual activity (PRKX (human)): 152% | residual activity (MYO3B (human)): 102% | residual activity (EPHA6 (human)): 101% | residual activity (MELK (human)): 83.7% | residual activity (PAK6 (human)): 107% | residual activity (STK33 (human)): 94.2% | residual activity (MAPK3 (human)): 94.7% | residual activity (AURKC (human)): 87% | residual activity (RPS6KA5 KD2 (human)): 85.5% | residual activity (TLK2 (human)): 102% | residual activity (STK38 (human)): 100% | residual activity (CDK2 CCNE1 (human)): 94.5% | residual activity (ABL1 (human)): 96.5% | residual activity [1]: 97.6% | residual activity (AKT1 (human)): 103% | residual activity (OXSR1 (human)): 101% | residual activity (BRAF (human)): 92.2% | residual activity (MAPK10 (human)): 116% | residual activity (PRKG1 (human)): 94.1% and 97.2% | residual activity (CSNK2A2 (human)): 106% | residual activity (MST1R (human)): 91.6% | residual activity (HIPK3 (human)): 96.5%

Cc1cc2ncc(-c3ccccc3)nc2cc1C
residual activity (PAK7 (human)): 96.9% | residual activity (MAPKAPK2 (human)): 95.9% | residual activity (CLK2 (human)): 102% | residual activity (ULK3 (human)): 86.4% | residual activity (STK10 (human)): 90.7% | residual activity (CSNK1A1 (human)): 95.4% | residual activity (TYRO3 (human)): 90.9% | residual activity (NUAK2 (human)): 124% | residual activity (SIK2 (human)): 87.4% | residual activity (TNK2 (human)): 98.4% | residual activity (MAP2K2 (human)): 97.6% | residual activity (CDK6 CCND1 (human)): 87.1% | residual activity (PRKCB1 (human)): 103% | residual activity (TAOK1 (human)): 94.3% | residual activity (ERBB2 (human)): 97.4% | residual activity (MAP3K8 (human)): 106% | residual activity (EGFR (human)): 84.5% | residual activity (PRKACG (human)): 95.8% | residual activity (STK16 (human)): 108% | residual activity (PRKX (human)): 97.9% | residual activity (MYO3B (human)): 99% | residual activity (EPHA6 (human)): 93% | residual activity (MELK (human)): 91.1% | residual activity (PAK6 (human)): 97.4% | residual activity (PDGFRB (human)): 89.1% | residual activity (STK33 (human)): 94.1% | residual activity (MAPK3 (human)): 106% | residual activity (AURKC (human)): 92.1% | residual activity (RPS6KA5 KD2 (human)): 96.4% | residual activity (TLK2 (human)): 100% | residual activity (STK38 (human)): 94.7% | residual activity (CDK2 CCNE1 (human)): 91.8% | residual activity (ABL1 (human)): 99.6% | residual activity (AKT1 (human)): 101% | residual activity (OXSR1 (human)): 85.6% | residual activity (MAPK10 (human)): 103% | residual activity (PRKG1 (human)): 86.2% and 93.7% | residual activity (CSNK2A2 (human)): 90.3% | residual activity (MST1R (human)): 99.4% | residual activity (HIPK3 (human)): 94.4%

CS(=O)c1ccc(-c2nc(-c3ccc(F)cc3)c(-c3ccncc3)[nH]2)cc1 (stereo not drawn)
residual activity (PAK7 (human)): 104% | residual activity (CLK2 (human)): 108% | residual activity (ULK3 (human)): 83.2% | residual activity (STK10 (human)): 89.1% | residual activity (CSNK1A1 (human)): 63.9% | residual activity (TYRO3 (human)): 97% | residual activity (NUAK2 (human)): 131% | residual activity (SIK2 (human)): 82.1% | residual activity (TNK2 (human)): 82.1% | residual activity (MAP2K2 (human)): 99.9% | residual activity (CDK6 CCND1 (human)): 100% | residual activity (PRKCB1 (human)): 74% | residual activity (TAOK1 (human)): 97.9% | residual activity (ERBB2 (human)): 94.6% | residual activity (MAP3K8 (human)): 92.1% | residual activity (PRKACG (human)): 107% | residual activity (STK16 (human)): 111% | residual activity (PRKX (human)): 99.3% | residual activity (MYO3B (human)): 104% | residual activity (EPHA6 (human)): 57.2% | residual activity (MELK (human)): 102% | residual activity (PAK6 (human)): 76.7% | residual activity (PDGFRB (human)): 103% | residual activity (STK33 (human)): 98.1% | residual activity (MAPK3 (human)): 101% | residual activity (AURKC (human)): 98.5% | residual activity (RPS6KA5 KD2 (human)): 103% | residual activity (TLK2 (human)): 96.5% | residual activity (STK38 (human)): 105% | residual activity (CDK2 CCNE1 (human)): 93.1% | residual activity (ABL1 (human)): 97% | residual activity [1]: 42.7% | residual activity (AKT1 (human)): 102% | residual activity (OXSR1 (human)): 102% | residual activity (BRAF (human)): 78.8% | residual activity (MAPK10 (human)): 114% | residual activity (PRKG1 (human)): 88.8% and 94.3% | residual activity (MST1R (human)): 101% | residual activity (HIPK3 (human)): 103%

Reference: the kinase profiling compilation of Christmann-Franck et al. (2016)
